# Read-outs that look alike come from different tables or passages of the source.
# Experiments:
# [1] = rats, cited from earlier work
# [2] = system: bovine respiratory disease; settings: cattle; intermittent 30 minute exposures of gNO; cited from earlier work
# [3] = Phase I open label safety study of intermittent inhalation of 160 ppm gNO in healthy adults; format: in vivo, human
# From the text: 10 healthy adult volunteer subjects (5 males, 5 females), aged 20 to 62 years, were enrolled in the study after screening their medical history, a physical examination, pulmonary function tests and blood values. Exclusion criteria included individuals less than 19 years of age, pregnant females and unwilling to practice birth control during the study, diagnosed with pulmonary disease, epistaxis, hemoptysis, methemoglobinemia, organ transplant recipient or receiving antibiotic therapy.
# After obtaining informed consent, treatment was initiated within 5 days of enrollment. Subjects were housed in a hospital ward and received 160 ppm gNO for 30 minutes every four hours (Q4 h), five times a day, for five consecutive days by inhalation. Subjects returned for follow-up evaluations 3, 7 and 21 days after the final gNO administration. Subject safety was determined by monitoring vital signs, methemoglobin levels, lung function, blood chemistry, hematology, prothrombin time, inflammatory cytokine/chemokines levels and endothelial activation. These parameters were compared to baseline and at various time-points during and after gNO administration.
# Subjects were administered gNO through a modified disposable mouthpiece to maximize mixing. Inspiration was spontaneously initiated by the subject from a conventional intermittent positive pressure breathing respirator (Mark-7, Carefusion, USA) in fixed flow mode delivering 48 liters per minute (LPM). Flows of gas were verified with a calibrated mass flow meter (TSI, USA). Gaseous nitric oxide (gNO, obtained at INOmax, Ikaria, USA) at a concentration of 800 ppm delivered at a flow of 12 LPM was titrated into a distal delivery port on the mouth piece connected to the respirator during inspiratory phase only (pressure switch). The Mark 7 respirator was supplied by an air/oxygen blender (Bird Sentry, Carefusion, USA) set to deliver 26% oxygen.
# The levels of gNO, NO2, O2 and methemoglobin were monitored during the administration of gNO. […] Inspiratory NO, NO2 and O2 levels were continuously monitored by sampling from the mouthpiece sample port located about 6 millimeters from the mouth of the subject with an AeroNOx (Pulmonox, AB, Canada) NO, NO2 and O2 electrochemical analyzer. Delivery safety was determined by the number of occasions that NO2 exceeded 5 ppm, gNO exceeding 10% variation and O2 dropping below 20% during gNO administration. […]
# These parameters were measured continuously during every gNO administration course and for 3.5 hours after the first treatment of the day. Daily serum samples were collected and frozen at −80° C. and the serum […] level was measured using the Griess reagent.
# Subjects underwent full pulmonary function tests (PFT), including lung diffusing capacity (DLCO) by a trained technician utilizing a calibrated pulmonary function system (Jaeger MasterScreen, VIASYS Healthcare, USA) on screening and days 2, 8, 12 and 26. […] Effect of gNO on lung function and DLCO was determined by changes from baseline, treatment days and follow up days.
# General medical examinations were performed by a pulmonary physician on screening and on days 8, 12 and 26 to obtain oxygenation and vital sign measurements. […] Oxygenation was measured with a pulse oximeter (Rad 57, Masimo Corporation, USA) which was used according to manufacturer's guidelines to measure functional oxygen saturation of arterial hemoglobin (SpO2) and heart rate. […]
# S. aureus = S. aureus on agar; 50-160 ppm gNO, vs medical air; cited from earlier work
# [4] = system: chronic, non-healing wound; settings: topical 200 ppm gNO; within the first three days of treatment; cited from earlier work
# P. aeruginosa = P. aeruginosa on agar; 50-160 ppm gNO, vs medical air; cited from earlier work
# [5] = healthy humans, cited from earlier work
# [6] = system: five planktonic species of methicillin resistant S. aureus (MRSA); settings: 1,600 ppm hours of gNO; cited from earlier work
smiles,measurement,setting,value
"[N]=O [gNO, nitric oxide]",mortality,"[1]; groups of 10, 300 ppm gNO, 6 continuous hours per day",Six of the animals treated with 300 ppm gNO died during the first 1-2 days
same,MetHb levels,[1]; 400 ppm gNO,72.5 percents
same,MetHb levels,[1]; 500 ppm gNO,67 percents
same,clinical symptoms of bovine respiratory disease,[2],decrease the clinical symptoms of bovine respiratory disease
same,accumulative effect on SpMet,[3]; after five daily treatments for five consecutive days,no accumulative or lingering effect on SpMet
same,"DLCO, FVC, TLC and RV",[3]; during the course of the study,did not change from baseline measurement
same,airflow as measured by FEV1 and MMEF,[3]; during the course of the study,did not differ from baseline
same,Ang-2 and Ang-2/Ang-1 ratios,[3]; plasma,not affected
same,"cytokine levels of TNF, IL-6, IL-8, IL-10, IL-1b and IL-12p70","[3]; plasma, compared to baseline",unaffected
same,survival (bactericidal trend),S. aureus,5-10%
same,presence of biofilm in the wound,[4],no longer visibly present
same,survival (bactericidal trend),P. aeruginosa,5-10%
same,levels of MetHb,[5]; inhalation of gNO at 128 ppm for 3 hours,> 5%
same,levels of MetHb,[5]; inhalation of gNO at 512 ppm for 55 minutes,> 5%
same,population of planktonic MRSA strains,[6],reduction in the population of all five MRSA planktonic strains

# From patent publication US20160022731A1, “[…] NITRIC OXIDE FOR TREATING RESPIRATORY DISEASES” (Advanced Inhalation Therapies (AIT) Ltd., priority 2013, published 2016)
